Broadly, the IC50 is the midpoint of a concentration-inhibition curve. Low values mean higher potency, high ones lower potency. The Kd is the free concentration of one partner at which half of the binding sites on the other are occupied at equilibrium, for simple one-to-one binding. The low end stands for a tighter complex, the high end for a looser complex. Broadly, the Km is the concentration of substrate that gives half-maximal velocity.

Series [1] has as its target T1, PatAB (PatA^WTB^WT) (Streptococcus pneumoniae, UniProt A0ACD7PU88+Q8DN70).
T1 construct: gene ABC-NP; full length; N-terminal His6-PatA and C-terminal PatB-His10, tags kept; coexpressed in Lactococcus lactis NZ9000 ΔlmrA ΔlmrCD
The experiment in a line: ATPase inhibition, malachite green Pi assay. The format is biochemical.

The target in series [2] is T2, PatAB (PatA^WTB^WT) (Streptococcus pneumoniae, UniProt A0ACD7PU88+Q8DN70, Q8DN70:Q521A).
T2 construct: gene ABC-NP
The series can be described thus: biochemical.
Excerpt: ATPase inhibition, malachite green Pi assay on PatAB (PatA^WTB^WT)

The target in series [3] is T1, PatAB (PatA^WTB^WT). The series can be described thus: fluorescence anisotropy titration. The format is binding. (In general: Polarisation of emitted light reports the rotation of a fluorescent probe.)
Series [4] deals with T1, PatAB (PatA^WTB^WT). The series can be described thus: competition with EMA photolabelling, in-gel fluorescence. As to conditions: 20-fold excess over EMA, membrane vesicles; also transported substrate (efflux from L. lactis cells). Type of series: binding.
Series [5] relates to Nc1nc2c(ncn2[C@@H]2O[C@H](COP(=O)(O)OP(=O)(O)OP(=O)(O)O)[C@@H](O)[C@H]2O)c(=O)[nH]1. The experiment in a line: GTPase, malachite green Pi assay. Particulars: 10 mM MgCl2, pH 7.0, 30 °C, DDM, no drug. The format is biochemical, Streptococcus pneumoniae.

`CC[n+]1c(-c2ccccc2)c2cc(N)ccc2c2ccc(N)cc21` [Ethidium]: the IC50 in series [1] was 7.1 ± 1.8 µM; in series [2], 6.5 ± 1.7 µM. Also, the Kd in series [3] was found to be 0.103 µM.

Take `CO[C@@H]1[C@@H](OC(=O)c2ccc(C)[nH]2)[C@@H](O)[C@H](Oc2ccc3c(O)c(NC(=O)c4c[nH]c(C(=O)Nc5c(O)c6ccc(O[C@@H]7OC(C)(C)[C@H](OC)[C@@H](OC(=O)c8ccc(C)[nH]8)[C@H]7O)c(C)c6oc5=O)c4C)c(=O)oc3c2C)OC1(C)C` [Coumermycin A1]: the IC50 in series [1] amounted to 3.7 ± 0.4 µM; in series [2], 3 ± 1 µM.

For the compound `COc1cccc2c1C(=O)c1c(O)c3c(c(O)c1C2=O)C[C@@](O)(C(C)=O)C[C@@H]3O[C@H]1C[C@H](N)[C@H](O)[C@H](C)O1` [daunomycin], the “% reduction in EMA incorporation” value in series [4] is recorded as 75%.

“PatAB (PatA^WTB^WT) (Streptococcus pneumoniae)”: the Km in series [5] was determined as 1100 ± 400 µM.

Consider `CO[C@@H]1[C@@H](OC(N)=O)[C@@H](O)[C@H](Oc2ccc3c(O)c(NC(=O)c4ccc(O)c(CC=C(C)C)c4)c(=O)oc3c2C)OC1(C)C` [Novobiocin], for which the IC50 in series [1] stood at 4.6 ± 1.7 µM; in series [2], 9.7 ± 2 µM.

As for `CC[N+](C)(CC)CCC[n+]1c(-c2ccccc2)c2cc(N)ccc2c2ccc(N)cc21` [Propidium], the IC50 was 0.9 ± 0.6 µM in series [1] and 0.9 ± 0.8 µM in series [2].

Source of the values: publication PMC9541285, “Drug‐dependent inhibition of nucleotide hydrolysis in the heterodimeric ABC multidrug transporter PatAB from Streptococcus pneumoniae” (The Febs Journal, 2022).
